# Values joined by “and” are separate entries in the source; they are usually repeats but may differ in a detail not shown here. Equal values may be shown once. Inconclusive results and toxic doses are left out. Peptide text beside a SMILES is read from it. * marks the point of attachment. Bz = O=C(c1ccccc1)*; Bn = c1ccc(C*)cc1; βAla = NCCC(=O)O; For = O=C*
# Tested on: P388 leukemia ip, CD2F1 mice, survival T/C
# Assay: NCI In Vivo Anticancer Drug Screen. Data for tumor model P388 Leukemia (intraperitoneal) in CD2F1 (CDF1) mice
# Conditions: endpoint: median survival time, higher = longer survival
# Method in brief: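 Mice carrying the transplanted tumor received test compound or vehicle. Survival was recorded in each group, and the value is the treated-group measurement divided by that of the vehicle-treated control group.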
# [1] = dose: 60.0 mg/kg/injection, schedule: Q01DX005 (ip), vehicle: saline
# [2] = dose: 120.0 mg/kg/injection, schedule: Q01DX005 (ip), vehicle: saline
# [3] = dose: 240.0 mg/kg/injection, schedule: Q01DX005 (ip), vehicle: saline
# [4] = dose: 50.0 mg/kg/injection, schedule: Q01DX005 (ip), vehicle: Klucel (hydroxypropylcellulose) (HPC)
# [5] = dose: 100.0 mg/kg/injection, schedule: Q01DX005 (ip), vehicle: Klucel (hydroxypropylcellulose) (HPC)
# [6] = dose: 200.0 mg/kg/injection, schedule: Q01DX005 (ip), vehicle: Klucel (hydroxypropylcellulose) (HPC)
# [7] = dose: 1.25 mg/kg/injection, schedule: Q01DX009 (ip), vehicle: Klucel (hydroxypropylcellulose) (HPC)
# [8] = dose: 2.5 mg/kg/injection, schedule: Q01DX009 (ip), vehicle: Klucel (hydroxypropylcellulose) (HPC)
# [9] = dose: 50.0 mg/kg/injection, schedule: Q01DX005 (ip), vehicle: saline with Tween-80
# [10] = dose: 100.0 mg/kg/injection, schedule: Q01DX005 (ip), vehicle: saline with Tween-80
# [11] = dose: 200.0 mg/kg/injection, schedule: Q01DX005 (ip), vehicle: saline with Tween-80
# [12] = dose: 100.0 mg/kg/injection, schedule: Q04DX003 (ip), vehicle: saline
# [13] = dose: 200.0 mg/kg/injection, schedule: Q04DX003 (ip), vehicle: saline
# [14] = dose: 50.0 mg/kg/injection, schedule: Q01DX009 (ip), vehicle: saline
# [15] = dose: 100.0 mg/kg/injection, schedule: Q01DX009 (ip), vehicle: saline
# [16] = dose: 200.0 mg/kg/injection, schedule: Q01DX009 (ip), vehicle: saline
# [17] = dose: 120.0 mg/kg/injection, schedule: Q01DX005 (ip), vehicle: saline with Tween-80
# [18] = dose: 240.0 mg/kg/injection, schedule: Q01DX005 (ip), vehicle: saline with Tween-80
# [19] = dose: 100.0 mg/kg/injection, schedule: Q01DX001 (ip), vehicle: saline with Tween-80
# [20] = dose: 200.0 mg/kg/injection, schedule: Q01DX001 (ip), vehicle: saline with Tween-80
# [21] = dose: 400.0 mg/kg/injection, schedule: Q01DX001 (ip), vehicle: saline with Tween-80
# [22] = dose: 6.25 mg/kg/injection, schedule: Q01DX009 (ip), vehicle: saline with Tween-80
# [23] = dose: 12.5 mg/kg/injection, schedule: Q01DX009 (ip), vehicle: saline with Tween-80
compound,measurement,setting,value
CC(C)(C)B1N(c2ccccc2)N=NN1C(C)(C)C,T/C,[1],100 % of control
same,T/C,[2],99 % of control and 88 % of control
same,T/C,[3],96 % of control and 98 % of control
Cn1c([N+](=O)[O-])cnc1CSc1ccc(C#N)cc1,T/C,"dose: 25.0 mg/kg/injection, schedule: Q01DX005 (ip), vehicle: Klucel (hydroxypropylcellulose) (HPC)",105 % of control
same,T/C,[4],104 % of control
same,T/C,[5],92 % of control
same,T/C,[6],114 % of control
CCOC(=O)NCCCCCCNC(=O)OCC,T/C,[4],99 % of control and 90 % of control
same,T/C,[5],90 % of control and 95 % of control
same,T/C,[6],93 % of control and 98 % of control
COc1cc2c(c3c1OCO3)-c1ccc(OC)c(=O)cc1C(NC(C)=O)CC2 (stereo not drawn),T/C,[7],108 % of control
same,T/C,[8],104 % of control
same,T/C,"dose: 5.0 mg/kg/injection, schedule: Q01DX009 (ip), vehicle: Klucel (hydroxypropylcellulose) (HPC)",111 % of control
same,T/C,"dose: 10.0 mg/kg/injection, schedule: Q01DX009 (ip), vehicle: Klucel (hydroxypropylcellulose) (HPC)",116 % of control
same,T/C,"dose: 20.0 mg/kg/injection, schedule: Q01DX009 (ip), vehicle: Klucel (hydroxypropylcellulose) (HPC)",118 % of control
CN(O)C(=O)CNC(=O)OC(C)(C)C,T/C,[9],100 % of control
same,T/C,[10],98 % of control
same,T/C,[11],100 % of control
same,T/C,"dose: 400.0 mg/kg/injection, schedule: Q01DX005 (ip), vehicle: saline with Tween-80",105 % of control
CC(=O)c1c(C)nc2c(-c3ccccc3)[nH]c(C)c2c1C,T/C,"dose: 100.0 mg/kg/injection, schedule: Q04DX003 (ip), vehicle: Klucel (hydroxypropylcellulose) (HPC)",100 % of control
same,T/C,"dose: 200.0 mg/kg/injection, schedule: Q04DX003 (ip), vehicle: Klucel (hydroxypropylcellulose) (HPC)",102 % of control
same,T/C,"dose: 400.0 mg/kg/injection, schedule: Q04DX003 (ip), vehicle: Klucel (hydroxypropylcellulose) (HPC)",111 % of control
COC(=O)C(CSCc1ccccc1)NC(=O)C(CSCc1ccccc1)NC(=O)CCNC(=O)c1ccccc1 (stereo not drawn) ({Bz-βAla}-Cys(Bn)-Cys(Bn)-OMe; configuration not given here),T/C,"dose: 12.5 mg/kg/injection, schedule: Q01DX009 (ip), vehicle: distilled water + Tween-80",92 % of control
same,T/C,"dose: 25.0 mg/kg/injection, schedule: Q01DX009 (ip), vehicle: distilled water + Tween-80",89 % of control
same,T/C,"dose: 50.0 mg/kg/injection, schedule: Q01DX009 (ip), vehicle: distilled water + Tween-80",90 % of control
same,T/C,"dose: 100.0 mg/kg/injection, schedule: Q01DX009 (ip), vehicle: distilled water + Tween-80",94 % of control
Nc1nc(N)c(N=Nc2ccccc2)c(=O)[nH]1,T/C,"dose: 50.0 mg/kg/injection, schedule: Q01DX009 (ip), vehicle: saline with Tween-80",100 % of control
same,T/C,"dose: 50.0 mg/kg/injection, schedule: Q04DX003 (ip), vehicle: saline with Tween-80",86 % of control
same,T/C,"dose: 100.0 mg/kg/injection, schedule: Q01DX009 (ip), vehicle: saline with Tween-80",90 % of control
same,T/C,"dose: 100.0 mg/kg/injection, schedule: Q04DX003 (ip), vehicle: saline with Tween-80",95 % of control
same,T/C,"dose: 200.0 mg/kg/injection, schedule: Q01DX009 (ip), vehicle: saline with Tween-80",115 % of control
same,T/C,"dose: 200.0 mg/kg/injection, schedule: Q04DX003 (ip), vehicle: saline with Tween-80",95 % of control
CNC(=O)N(C)C(C)=O,T/C,[12],123 % of control and 94 % of control
same,T/C,[13],99 % of control and 124 % of control
Cc1cc(C)n(-c2cc(N3CCOCC3)ncn2)n1,T/C,[14],96 % of control
same,T/C,[15],95 % of control
same,T/C,[16],98 % of control
CC1(C)C(=O)N2C(=O)CC(=O)N2C1=O,T/C,[17],97 % of control
same,T/C,[18],93 % of control
OCC(F)(F)C(F)(F)C(F)(F)CO,T/C,[12],100 % of control
same,T/C,[13],100 % of control
same,T/C,"dose: 400.0 mg/kg/injection, schedule: Q04DX003 (ip), vehicle: saline",100 % of control
CC[N+]1([O-])CCOCC1,T/C,[14],97 % of control
same,T/C,[15],101 % of control
same,T/C,[16],113 % of control
Cc1nc2[nH]ncc2c(=O)n1-c1ccccc1Cl,T/C,[4],101 % of control
same,T/C,[5],101 % of control
same,T/C,[6],99 % of control
O=N[O-].O=N[O-].[NH2-].[NH2-].[NH2-].[NH2-].[Ni],T/C,"dose: 6.25 mg/kg/injection, schedule: Q01DX009 (ip), vehicle: saline",100 % of control
same,T/C,"dose: 12.5 mg/kg/injection, schedule: Q01DX009 (ip), vehicle: saline",105 % of control
CC(C)C1=CC23CCC4C(C)(C(=O)O)CCCC4(C)C2CC1OO3 (stereo not drawn),T/C,"dose: 100.0 mg/kg/injection, schedule: Q01DX009 (ip), vehicle: saline sonified",95 % of control
same,T/C,"dose: 200.0 mg/kg/injection, schedule: Q01DX009 (ip), vehicle: saline sonified",100 % of control
same,T/C,"dose: 400.0 mg/kg/injection, schedule: Q01DX009 (ip), vehicle: saline sonified",100 % of control
CCCCC(O)c1ccc[n+]([O-])c1 (stereo not drawn),T/C,[14],94 % of control
same,T/C,[15],94 % of control
same,T/C,[16],93 % of control
O=P1(O)OC[C@H]2CCC[C@@H]2O1,T/C,[1],106 % of control
same,T/C,[2],97 % of control
O=C1NC(=O)C2(OC3c4ccccc4C=NN3C3=C2C(=O)CC3)C(=O)N1 (stereo not drawn),T/C,[19],101 % of control
same,T/C,[20],100 % of control
same,T/C,[21],104 % of control
BrCOCCCCOCBr,T/C,[1],114 % of control
same,T/C,[2],101 % of control
same,T/C,[3],108 % of control
NC(CCC(=O)O)C(=O)Nc1ccc(N(CCCl)CCCl)cc1 (stereo not drawn),T/C,"dose: 1.56 mg/kg/injection, schedule: Q01DX009 (ip), vehicle: saline with Tween-80",173 % of control
same,T/C,"dose: 3.12 mg/kg/injection, schedule: Q01DX009 (ip), vehicle: saline with Tween-80",175 % of control
same,T/C,[22],230 % of control
same,T/C,[23],92 % of control
C/C(=N\NC(=S)N1CCC1)c1ccccn1,T/C,"dose: 1.56 mg/kg/injection, schedule: Q01DX005 (ip), vehicle: other",99 % of control
same,T/C,"dose: 3.12 mg/kg/injection, schedule: Q01DX005 (ip), vehicle: other",103 % of control
same,T/C,"dose: 6.25 mg/kg/injection, schedule: Q01DX005 (ip), vehicle: other",99 % of control
same,T/C,[22],95 % of control
same,T/C,"dose: 12.5 mg/kg/injection, schedule: Q01DX005 (ip), vehicle: other",94 % of control
same,T/C,[23],99 % of control
same,T/C,"dose: 25.0 mg/kg/injection, schedule: Q01DX005 (ip), vehicle: other",100 % of control
CC(C)N(C(=O)SCC(Cl)=C(Cl)Cl)C(C)C,T/C,"dose: 60.0 mg/kg/injection, schedule: Q01DX005 (ip), vehicle: saline with Tween-80",100 % of control
same,T/C,[17],103 % of control
same,T/C,[18],102 % of control
COC(C(=O)CN(C)C)(c1ccccc1)c1ccccc1,T/C,[1],107 % of control
same,T/C,[2],99 % of control
same,T/C,[3],105 % of control
COc1ccc(Nc2nnc(-c3ccc4c(c3)OCO4)o2)cc1,T/C,[4],100 % of control
same,T/C,[5],93 % of control
same,T/C,[6],97 % of control
CCCC(=O)NC1CCc2cc(OC)c(OC)c(OC)c2-c2ccc(OC)c(=O)cc21 (stereo not drawn),T/C,"dose: 0.62 mg/kg/injection, schedule: Q01DX009 (ip), vehicle: Klucel (hydroxypropylcellulose) (HPC)",152 % of control
same,T/C,"dose: 0.63 mg/kg/injection, schedule: Q01DX009 (ip), vehicle: Klucel (hydroxypropylcellulose) (HPC)",178 % of control
same,T/C,[7],152 % of control and 233 % of control
same,T/C,[8],221 % of control
CSCCC(NC(=O)C(Cc1ccccc1)NC=O)C(=O)O (stereo not drawn) (For-Phe-Met-OH; configuration not given here),T/C,[9],108 % of control
same,T/C,[10],103 % of control
same,T/C,[11],104 % of control
NCCCCC(N)C(=O)O (stereo not drawn),T/C,[14],104 % of control
same,T/C,[15],100 % of control
same,T/C,[16],94 % of control
O=C(Nc1ccc(F)cc1)/C(Cl)=C1/Sc2ccccc2NC1=O,T/C,[19],102 % of control
same,T/C,[20],94 % of control
same,T/C,[21],94 % of control
CC1=C(C(=O)Nc2ccc(Cl)c(C(=O)OC(C)C)c2)SCCO1,T/C,[19],96 % of control
same,T/C,[20],92 % of control
same,T/C,[21],87 % of control
CC(C)=NNC1=NC(CC(C)C)P(=O)(NCCCCNP2(=O)SC(NN=C(C)C)=NC2CC(C)C)S1 (stereo not drawn),T/C,[9],103 % of control
same,T/C,[10],103 % of control
same,T/C,[11],101 % of control
